Residues, ends and D or L forms follow the SMILES beside them.
Experiments:
[1] = tested on: NO production induced by TLR-2 agonist R-FSL-1 in J774 cells; experiment: Nitrite (NO) production induced by TLR-2 agonist R-FSL-1 in J774 cells; assay type: cell-based; settings: 10^−6 M, 2 hr pre-exposure; R-FSL-1 300 ng/mL 17 hr
Experimental: J774 cells (ATCC passage 10 to 15) were cultured (2×10^5 cells/ml) in 24-well plates (Costar 3524 NY) in DMEM supplemented with FBS (10%).Three hours after plating, cell culture medium was replaced with 0.5 mL of the same medium containing 10^−6M of imidazolones derivatives for 2 hr pretreatment. Cells were then exposed to R-FSL1 (300 ng/ml) for 17 hr at 37° C. Cell culture media were collected and aliquots (10 μL) were mixed with 10 μL of 2,3 diaminonapthalene reagent (0.05 mg/mL in HCl 0.62M) for nitrite levels determination by fluorescence (λexc 365 nm and λem 430 nm) (Misko et al. (1993) Anal Biochem, 214, 11-16).

[2] = molecular target: T1, recombinant soluble His-tagged CD36 (Homo sapiens, UniProt P16671); experiment: SPR spectroscopy binding to CD36; settings: for Kd: SPR response for ligand 100 nM to 30 μM fitted to Langmuir isotherm; for SPR ΔλSPR (nm): SPR response on CD36 functionalized surface
T1 construct: recombinant soluble His-tagged CD36 functionalized surface
T1 sequence (P16671 30-439 limits assumed): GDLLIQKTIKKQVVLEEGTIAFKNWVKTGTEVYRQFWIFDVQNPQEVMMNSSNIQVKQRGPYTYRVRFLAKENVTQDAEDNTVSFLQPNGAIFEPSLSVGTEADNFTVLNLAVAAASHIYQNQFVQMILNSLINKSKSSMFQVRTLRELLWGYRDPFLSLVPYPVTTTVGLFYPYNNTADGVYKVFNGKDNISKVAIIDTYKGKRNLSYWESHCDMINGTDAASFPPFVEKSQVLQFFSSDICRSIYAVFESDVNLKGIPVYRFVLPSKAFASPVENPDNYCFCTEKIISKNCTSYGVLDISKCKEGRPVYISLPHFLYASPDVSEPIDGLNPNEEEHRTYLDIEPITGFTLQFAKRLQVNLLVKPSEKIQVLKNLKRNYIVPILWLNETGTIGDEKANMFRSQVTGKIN
Experimental: The affinity of the small peptide ligand binding to a recombinant soluble His-tagged CD36 functionalized surface was screened by SPR sensing as previously described (Bolduc, O. R.; Lambert-Lanteigne, P.; Colin, D. Y.; Zhao, S. S.; Proulx, C.; Boeglin, D.; Lubell, W. D.; Pelletier, J. N.; Féthière, J.; Ong, H.; Masson, J.-F. Analyst. 2011, 136, 3142-3148). Briefly, the SPR sensors were prepared by immobilizing the His-tagged CD36 to 3-mercaptopropionyl-leucinyl-histidinyl-aspartyl-leucinyl-histidinyl-aspartic acid (3-Mpa-LHDLHD) with Nα,Nα-bis(carboxymethyl)-L-lysine at the C-terminus, a modified peptide monolayer competent to bind His-tagged biomolecules. A calibration curve of the SPR response for ligand concentrations ranging from 100 nM to 30 μM was fitted to the Langmuir isotherm (Equation 1) to determine K (K=1/Kd) for the CD36-ligand system. ΔλSPR=(K[ligand])ΔλSPRmax(1+K[ligand])^−1 (1)

[3] = tested on: MAP kinase JNK phosphorylation induced by POVPC in RAW 264.7 murine macrophage cells; experiment: JNK assay: POVPC-induced JNK phosphorylation in RAW 264.7 macrophages; assay type: cell-based; settings: for EC50: 2 h pre-treatment 10^−9 to 10^−6 M, then 10 μg/mL POVPC 30 min, phospho-JNK/total-JNK ratio, read-out: JNK-kinase cellular assay EC50; for inhibitory activity on MAP kinase JNK phosphorylation relative to [azaTyr^4]GHRP-6, in words: POVPC-stimulated RAW 264.7 cells
Experimental: RAW264.7 murine macrophage cells (American Type Culture Collection, Manassas, Va.) pre-treated with N-amino-imidazolin-2-one peptide for 2 h at concentration varying from 10^−9 to 10^−6 M were stimulated with 10 μg/mL POVPC (Cayman chemical, Ann Arbor, Mich.) for 30 min at 37° C. Cells were lysed on ice and centrifuged at 12,000×g. Aliquots of the resulting supernatant (30 μg of protein) were analyzed on SDS-PAGE and electrotransferred on nitrocellulose membrane. The revelation was performed by incubating the membrane with primary antibody against phospho-JNK or total-JNK (Cell signalling, Pickering, Canada) (1:500) overnight and with secondary HRP-conjugated goat anti-rabbit IgG antibody (Jackson Immunoresearch Laboratories Inc., West Grove, Pa.) (1:10,000) for 1 h. Membrane was visualized by chemiluminescence and intensity of bands was measured with Image Quant software (Molecular Dynamics, Sunnyvale, Calif.). The ratio of phospho-JNK/total-JNK was used to determine the phosphorylation state of JNK modulated by the tested peptide.
RAW 264.7 murine macrophage cells were seeded at 2×10^6 cells/well in a 6-well plate and starved in serum-free media overnight at 37° C. Cells were first pre-treated with the N-amino-imidazolin-2one peptide mimic at concentrations ranging from 10^−9 to 10^−6 M for 2 h and then stimulated with 10 μg/mL POVPC (Cayman chemical, Ann Arbor, Mich.) for 30 min at 37° C. Medium was then removed and cell plates were immediately frozen at −80° C. Cells were then scrapped into 100 μl of RIPA (50 mM Tris-HCl pH 7.5, 150 mM NaCl, 1% Triton X™-100, 0.1% SDS, 25 mM NaF) containing 1 mM PMSF and 1 mM Na3VO4, and incubated on ice for 30 min. The soluble fractions were isolated by centrifugation at 12,000×g for 30 min. The supernatant was collected and proteins were assayed with BCA reagent. Aliquots ([…]) were analyzed on 10% SDS-PAGE and electrotransferred on nitrocellulose membrane. Membrane was blocked with 5% BSA in TBS-T and incubated overnight with primary antibody against phospho-JNK or total-JNK (1:500) (Cell signalling, Pickering, Canada) in 5% BSA TBS-T. The membranes were then washed 5 times with TBS-T and incubated with secondary HRP-conjugated goat anti-rabbit IgG antibody (1:10,000) in 5% BSA TBS-T for 1 h at room temperature. The reaction was visualized by chemiluminescence using SuperSignal™ West Dura (Thermo scientific, Rockford, Ill.) and signals analyzed with Chemilmager™ 5500 (Alpha Innotech, San Leandro, Calif.). The intensity of each band was measured by densitometry using Image Quant™ software (Molecular Dynamics, Sunnyvale, Calif.) and the phosphorylation state was determined from the intensity ratio of phospho-JNK/total-JNK. To determine IC50 of inhibition curves, intensity ratio data were plotted using Prism™ 4 software (GraphPad, La Jolla, Calif.).

human TF-1 cells = experiment: IL-1β-induced thymocyte (TF-1) proliferation, CyQUANT NF dye; assay type: cell-based; settings: peptide 1 μM; human IL-1β 25 ng/mL; 48 h
Experimental: Immune cell proliferation was assessed by DNA intercalation of CyQUANT NF® fluorescent dye (Invitrogen, Carlsbad, Calif., USA). Essentially, human TF-1 cells (CRL-2003, American Type Culture Collection) were cultured in complete RPMI 1640 (WISENT Inc., Montréal, Quebec, Canada) supplemented with human GM-CSF (2 ng/ml, PeptroTech, Rocky Hill, N.J., USA). Cells (passage 5 and at least 85% viable, as verified by trypan blue dying) were reincorporated into RPMI 1640 medium deprived of phenol red (Gibco Invitrogen®, Carlsbad, Calif., USA) and of growth factors [i.e. fetal bovine serum (FBS) and GM-CSF] for 18 h and split (5×10^3 cells in 200 μL/well) into 96-well non-adherent flat bottom culture plates (Sarstedt®, Nümbrecht, Germany). Following 15 min pre-incubation with peptide or peptidomimetic (1 μM), the cells were treated with human IL-1β (25 ng/mL, PeproTech®, Rocky Hill, N.J., USA) and re-incubated. After 48 h, the cells were centrifuged for 7 min at 300 g, reincorporated into Hank's Buffered Salt Solution (1×HBSS, 50 μL/well, Gibco Invitrogen®, Carlsbad, Calif., USA) and transferred into a 96-well polystyrene black plate (Corning Incorporated, Corning, N.Y., USA). An additional 50 μL solution made of CyQUANT NF® dye (component A, 1×) and CyQUANT NF™ delivery agent (component B, 1×) in 1×HBSS was added to the cells in each well, which were covered with aluminum foil and incubated for 45 min. Fluorescence intensity was measured using a microplate reader (Perkin Elmer Wallac Envision® 2104; Perkin Elmer®, California, USA) with excitation at 485 nm and emission detection at 530 nm (FITC 485 and FITC 531 filters, respectively). Hexaplicate experiments were repeated three times and results were analyzed by one-way analysis of variance (ANOVA) factoring for treatments, and data are presented as mean±standard error of the mean (SEM).

Cc1c(-c2ccccc2)n(NC(=O)[C@H](C)NC(=O)[C@@H](Cc2c[nH]c3ccccc23)NC(=O)[C@@H](N)Cc2cnc[nH]2)c(=O)n1C(Cc1ccccc1)C(=O)N[C@@H](CCCCN)C(N)=O (mixture of isomers) [DNDB3-01, His-D-Trp-Ala-(N-amino-4-methyl-5-phenyl-imidazolin-2-one)-DL-Phe-Lys-NH2]
effect on nitrite/NO production induced by R-FSL-1, in words [1]: comparable to that of EP80317

Cc1ccc(-c2c(C)n(C(Cc3ccccc3)C(=O)N[C@@H](CCCCN)C(N)=O)c(=O)n2NC(=O)[C@H](C)NC(=O)[C@@H](Cc2c[nH]c3ccccc23)NC(=O)[C@@H](N)Cc2cnc[nH]2)cc1 (mixture of isomers) [DNDB3-03, His-D-Trp-Ala-(N-amino-4-methyl-5-p-toluoyl-imidazol-2-one)-DL-Phe-Lys-NH2]
effect on nitrite/NO production induced by R-FSL-1, in words [1]: comparable to that of EP80317

Cc1cn(NC(=O)[C@H](C)NC(=O)[C@@H](Cc2c[nH]c3ccccc23)NC(=O)[C@@H](N)Cc2c[nH]cn2)c(=O)n1C(Cc1ccccc1)C(=O)N[C@@H](CCCCN)C(N)=O (stereo partly drawn) [31a, His-D-Trp-Ala-(N-amino-4-methyl-imidazolin-2-one)-D-Phe-Lys-NH2]
Kd [2]: 4.9 µM
SPR ΔλSPR (nm) [2]: 1.1 nm
EC50 [3]: 0.0554 µM
inhibitory activity on MAP kinase JNK phosphorylation relative to [azaTyr^4]GHRP-6, in words [3]: increased inhibitory activity

C[C@H](NC(=O)[C@@H](Cc1c[nH]c2ccccc12)NC(=O)[C@@H](N)Cc1c[nH]cn1)C(=O)Nn1cc(Cc2ccccc2)n([C@H](Cc2ccccc2)C(=O)N[C@@H](CCCCN)C(N)=O)c1=O [31b, His-D-Trp-Ala-(N-amino-4-benzyl-imidazolin-2-one)-D-Phe-Lys-NH2]
affinity for the CD36 receptor relative to [azaTyr^4]GHRP-6, in words ([2]; SPR): comparable affinity
SPR ΔλSPR (nm) [2]: 1.6 nm
EC50 [3]: > 10 µM
inhibitory activity on MAP kinase JNK phosphorylation relative to [azaTyr^4]GHRP-6, in words [3]: relatively lower inhibitory activity

Cc1c(-c2ccccc2)n(NC(=O)[C@H](C)NC(=O)[C@@H](Cc2c[nH]c3ccccc23)NC(=O)[C@@H](N)Cc2cnc[nH]2)c(=O)n1[C@@H](Cc1ccccc1)C(=O)N[C@@H](CCCCN)C(N)=O [DND B2-109, His-D-Trp-Ala-(N-amino-4-methyl-5-phenyl-imidazol-2-one)-L-Phe-Lys-NH2]
effect on nitrite/NO production induced by R-FSL-1, in words [1]: comparable to that of EP80317

CC(C)C[C@@H](NC(=O)[C@@H](CCC(=O)O)NC(=O)[C@@H](C(C)C)N1CC=CCN(NC(=O)[C@@H](Cc2ccc(O)cc2)NC(=O)[C@H](N)CCCNC(=N)N)C1=O)C(=O)N[C@H](C)C(N)=O [[Nad^3]-101.10, D-Arg-D-Tyr-Nad-D-Val-D-Glu-D-Leu-D-Ala-NH2] (HELM PEPTIDE1{[dR].[dY].[CC(C)[C@H](C(=O)[*:2])N1CC=CCN(N[*:1])C1=O].[dE].[dL].[dA].[am]}$$$$V2.0)
exacerbated proliferation over the level of exogenous IL-1β (human TF-1 cells): 53%

CC(C)C[C@@H](NC(=O)[C@@H](CCC(=O)O)NC(=O)[C@@H](C(C)C)N1CCCN(NC(=O)[C@@H](Cc2ccc(O)cc2)NC(=O)[C@H](N)CCCNC(=N)N)C1=O)C(=O)N[C@H](C)C(N)=O [[Nap^3]-101.10, D-Arg-D-Tyr-Nap-D-Val-D-Glu-D-Leu-D-Ala-NH2] (HELM PEPTIDE1{[dR].[dY].[CC(C)[C@H](C(=O)[*:2])N1CCCN(N[*:1])C1=O].[dE].[dL].[dA].[am]}$$$$V2.0)
diminished IL-1β-induced proliferation (human TF-1 cells): 41%

C[C@H](NC(=O)[C@@H](Cc1c[nH]c2ccccc12)NC(=O)[C@@H](N)Cc1c[nH]cn1)C(=O)NN(Cc1ccc(O)cc1)C(=O)N[C@H](Cc1ccccc1)C(=O)N[C@@H](CCCCN)C(N)=O [[azaTyr^4]GHRP-6, His-D-Trp-Ala-AzaTyr-D-Phe-Lys-NH2, reference compound] (HELM PEPTIDE1{H.[dW].A.[O=C(N(Cc1ccc(O)cc1)N[*:1])[*:2]].[dF].K.[am]}$$$$V2.0)
SPR ΔλSPR (nm) [2]: 1.8 nm
EC50 [3]: 0.214 µM

C[C@H](NC(=O)[C@@H](Cc1c[nH]c2ccccc12)NC(=O)[C@@H](N)Cc1cnc[nH]1)C(=O)NN(Cc1ccc(O)cc1)C(=O)N[C@H](Cc1ccccc1)C(=O)N[C@@H](CCCCN)C(N)=O [[azaTyr^4]GHRP-6, His-D-Trp-Ala-AzaTyr-D-Phe-Lys-NH2, reference compound] (HELM PEPTIDE1{H.[dW].A.[O=C(N(Cc1ccc(O)cc1)N[*:1])[*:2]].[dF].K.[am]}$$$$V2.0)
Kd [2]: 5 µM

HAlC-2MeDTrp-DLys-Trp-DPhe-Lys-NH2 [EP80317, reference compound]
effect on nitrite/NO production induced by R-FSL-1, in words [1]: negatively modulated nitrite production

His-D-Trp-Ala-(N-amino-4-methyl-imidazolin-2-one)-D-Phe-Lys-NH2 [YGR 401-2]
effect on nitrite/NO production induced by R-FSL-1, in words [1]: comparable to that of EP80317

His-D-Trp-Ala-(N-amino-4-methyl-imidazolin-2-one)-L-Phe-Lys-NH2 [YGR401-1]
effect on nitrite/NO production induced by R-FSL-1, in words [1]: comparable to that of EP80317

His-azaPheAla-Trp-DPhe-Ala-NH2 [CP-1A(i), reference compound]
effect on nitrite/NO production induced by R-FSL-1, in words [1]: did not modulate NO production
